Patent US6486167B1, “Heterocyclic cytotoxic agents” (Rutgers, The State University of New Jersey, priority 1997, dated 2002)
Where two headings read alike, the source gives them in different places.

How the values were obtained:
[1] = biological target: T1, human topoisomerase I (Homo sapiens, UniProt P11387); assay: Topoisomerase I-mediated DNA cleavage assay (Test A); format: biochemical; conditions: for Topo I-mediated DNA cleavage (REC, Relative Effective Concentration): concentration relative to camptothecin (CPT = 1) producing the same cleavage on plasmid DNA, human topoisomerase I; for topoisomerase I poisoning activity (in words): qualitative statement
T1 construct: made in house
T1 sequence (P11387 1-765): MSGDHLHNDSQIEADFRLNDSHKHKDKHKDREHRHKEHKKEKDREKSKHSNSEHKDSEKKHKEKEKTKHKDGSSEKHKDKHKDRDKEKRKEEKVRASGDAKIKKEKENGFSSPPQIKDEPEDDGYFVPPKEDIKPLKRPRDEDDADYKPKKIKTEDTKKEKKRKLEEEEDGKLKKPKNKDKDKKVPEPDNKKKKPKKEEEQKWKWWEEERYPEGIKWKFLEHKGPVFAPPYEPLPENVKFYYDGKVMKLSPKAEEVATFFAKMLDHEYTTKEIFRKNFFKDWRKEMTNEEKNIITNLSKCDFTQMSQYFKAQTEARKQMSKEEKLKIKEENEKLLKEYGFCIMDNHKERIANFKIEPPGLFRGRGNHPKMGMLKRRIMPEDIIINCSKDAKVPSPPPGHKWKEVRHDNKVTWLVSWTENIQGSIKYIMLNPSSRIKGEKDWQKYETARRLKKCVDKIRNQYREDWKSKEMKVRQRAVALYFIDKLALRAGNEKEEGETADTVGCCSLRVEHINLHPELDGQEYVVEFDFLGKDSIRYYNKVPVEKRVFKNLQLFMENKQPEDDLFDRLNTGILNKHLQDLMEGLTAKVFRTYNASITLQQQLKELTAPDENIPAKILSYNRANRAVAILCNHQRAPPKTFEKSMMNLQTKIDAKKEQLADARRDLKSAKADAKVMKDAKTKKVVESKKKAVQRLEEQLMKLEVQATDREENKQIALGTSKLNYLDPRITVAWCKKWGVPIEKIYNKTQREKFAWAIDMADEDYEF
Procedure: (§1) Topoisomerase I and Topoisomerase II Cleavage Assay
(§2) Representative compounds of the invention were evaluated in cleavage assays for the recombinant topoisomerases I and calf thymus topoisomerases I and II. These assays were preformed as described by B. Gatto et al. Cancer Res., 1996, 56, 2795-2800. Human topoisomerase I was isolated as a recombinant fusion protein using a T7 expression system. DNA topoisomerase II was purified from calf thymus gland as reported by Halligan, B. D.; Edwards, K. A.; Liu, L. F. “Purification and characterization of a type II DNA topoisomerase from bovine calf thymus,” J. Biol. Chem. 1985, 260, 2475. Plasmid YEpG was purified by the alkali lysis method followed by phenol deproteination and CsCl/ethidium isopycnic centrifugation as described by Maniatis, T.; Fritsch, E. F.; Sambrook, J. Molecular Cloning, a Laboratory Manual; Cold Spring Harbor Laboratory: Cold Spring Harbor, N.Y. 1982; pp 149-185. The end-labeling of the plasmid was accomplished by digestion with a restriction enzyme followed by end-filling with Klenow polymerase as previously described by Liu, L. F.; Rowe, T. C.; Yang, L.; Tewey, K. M.; Chen, G. L. “Cleavage of DNA by mammalian topoisomerase II,” J. Biol. Chem. 1983, 258, 15365.

[2] = tested on: calf thymus topoisomerase II; assay: Topoisomerase II-mediated DNA cleavage assay (Test A); format: biochemical; conditions: concentration relative to VM-26 (= 1) producing the same cleavage on plasmid DNA
Procedure: as §1, §2

[3] = tested on: camptothecin-resistant variant cell line, CPT-K5; assay: MTT-microtiter plate tetrazolinium cytotoxicity assay (Test B), CPT-K5; format: cell-based, human; conditions: read-out: Cytotoxicity IC50 CPT-K5
Procedure: (§3) The cytotoxicity was determined using the MTT-microtiter plate tetrazolinium cytotoxicity assay (MTA) (See Chen A. Y. et al. Cancer Res. 1993, 53, 1332; Mosmann, T. J., J. Immunol. Methods 1983, 65, 55; and Carmichael, J. et al. Cancer Res. 1987, 47, 936).

[4] = tested on: human lymphoblast RPMI 8402; assay: MTT-microtiter plate tetrazolinium cytotoxicity assay (Test B), RPMI 8402; format: cell-based; conditions: read-out: Cytotoxicity IC50 RPMI
Procedure: as §3

[5] = Homo sapiens, 96 h, CPT-K5 camptothecin-resistant cells, 4 days of continuous drug exposure

Compound | Topo I-mediated DNA cleavage (REC, Relative Effective Concentration) [1] | Topo II-mediated DNA cleavage (REC, Relative Effective Concentration) [2] | IC50 [3, 5] [µM] | IC50 ([4]; Homo sapiens, 96 h, RPMI 8402 cells, 4 days of continuous drug exposure) [µM] | IC50 ([3]; Homo sapiens, CPT-K5, 96 h) [µM] | melting point [°C] | topoisomerase I poisoning activity (in words) [1] | IC50 ([4]; Homo sapiens, RPMI 8402, 96 h) [µM] | IC50 ([3]; CPT-K5 camptothecin-resistant cells, 4 days of continuous drug exposure) [µM] | IC50 ([4]; RPMI 8402 cells, 4 days of continuous drug exposure) [µM]
2,3,8,9-Dimethylenedioxybenzo[i]phenanthridine [Compound 29] | 100 | >1000 |  |  |  |  |  |  |  | 
CC[C@@]1(O)C(=O)OCc2c1cc1n(c2=O)Cc2cc3ccccc3nc2-1 [CPT, camptothecin, reference compound] | 1 | >1000 | > 10 | 0.004 |  |  |  |  |  | 
COc1cc2ccc3c4cc(OC)c(OC)cc4ncc3c2cc1OC [Compound 4, 2,3,8,9-Tetramethoxybenzo[i]phenanthridine] | >1000 | >1000 |  |  | 22.9 | 267 to 268 | significantly less topoisomerase I poisioning activity | 22.9 |  | 
COc1cc2ccc3c4cc(OC)c(OC)cc4nc(C)c3c2cc1OC [Compound 5, 5-Methyl-2,3,8,9-tetramethoxybenzo[i]phenanthridine] | >1000 | >1000 |  |  | > 27.5 | 255 to 257 | significantly less topoisomerase I poisioning activity | 27.5 |  | 
COc1cc2ncc3c4cc5c(cc4ccc3c2cc1OC)OCO5 [Compound 6, 2,3-Methylenedioxy-8,9-dimethoxybenzo[i]phenanthridine] | 100 | 10 |  |  | 7 | > 250 | potent activity | 7.5 |  | 
COc1cc2nc(C)c3c4cc5c(cc4ccc3c2cc1OC)OCO5 [Compound 7, 8,9-Dimethoxy-5-methyl-2,3-methylenedioxybenzo[i]-phenanthridine] | 200 | 100 |  |  | 14.4 | > 250 | potent activity | 10.1 |  | 
COc1cc2ccc3c4cc5c(cc4ncc3c2cc1OC)OCO5 [Compound 28, 2,3-Dimethoxy-8,9-methylenedioxybenzo[i]phenanthridine] | 25 | >1000 |  |  | 0.2 | 171 | potent topoisomerase poisioning activity | 0.2 |  | 
COc1cc2ccc3c4cc(OCc5ccccc5)ccc4ncc3c2cc1OC [Compound 30, 2,3-Dimethoxy-9-benzyloxybenzo[i]phenanthridine] | 250 | >1000 |  |  | 7.5 |  |  | 7.5 |  | 
COc1cc2ccc3c4cc(N)ccc4ncc3c2cc1OC [Compound 31, 2,3-Dimethoxy-9-aminobenzo[i]phenanthridine] | 50 | >1000 |  |  | 3 |  |  | 3 |  | 
COc1ccc2c(c1)ncc1c3cc(OC)c(OC)cc3ccc21 [Example 9, 2,3,8-Trimethoxybenzo[i]phenanthridine] |  |  |  |  |  | 200 to 202 |  |  |  | 
COc1cc2c[n+](C)c3c4cc5c(cc4ccc3c2cc1OC)OCO5 [Nitidine, reference compound] | 1 | 1 | > 2.6 |  |  |  |  | 0.65 |  | 
COc1cc([C@@H]2c3cc4c(cc3[C@@H](O[C@@H]3O[C@@H]5CO[C@@H](c6cccs6)O[C@H]5[C@H](O)[C@H]3O)[C@H]3COC(=O)[C@H]23)OCO4)cc(OC)c1O [VM-26, teniposide, reference compound] | >1000 | 1 |  |  |  |  |  |  | 0.5 | 0.3
